Test results reported in patent US6994868B2, “Compositions useful as inhibitors of ERK” (Vertex Pharmaceuticals Incorporated, priority 2000, dated 2006).
pKi: −log10 of the molar value.

Biological target: activated ERK2 (Homo sapiens, UniProt P28482)
Experiment: ERK inhibition assay (spectrophotometric coupled-enzyme assay)
Type: biochemical
Conditions: activated ERK2 10 nM, 65 μM ATP, 200 μM erktide peptide, 30° C., pH 7.5; read-out: ERK2 Inhibitory Activity (Ki class)

activated ERK2, sequence (P28482 whole entry): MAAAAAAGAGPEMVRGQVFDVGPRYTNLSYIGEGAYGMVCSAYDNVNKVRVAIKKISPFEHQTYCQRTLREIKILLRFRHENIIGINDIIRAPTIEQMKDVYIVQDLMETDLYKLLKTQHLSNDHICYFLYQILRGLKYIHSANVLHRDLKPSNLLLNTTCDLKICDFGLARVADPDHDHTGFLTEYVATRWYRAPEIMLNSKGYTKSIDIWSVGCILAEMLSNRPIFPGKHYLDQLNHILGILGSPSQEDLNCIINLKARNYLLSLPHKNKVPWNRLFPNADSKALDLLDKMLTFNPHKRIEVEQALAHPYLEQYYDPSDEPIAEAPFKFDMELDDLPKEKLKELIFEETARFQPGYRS

Row | Compound | pKi
1 | COc1ccccc1CNC(=O)c1cc(-c2[nH]ncc2-c2cccc(F)c2)c[nH]1 [II-A-63] | > 6.00
2 | O=C(NCc1ccncc1)c1cc(-c2[nH]ncc2-c2cccc(F)c2)c[nH]1 [II-A-80] | > 6.00
3 | O=C(NCc1ccccc1)c1cc(-c2[nH]ncc2-c2cccc(Cl)c2F)c[nH]1 [II-A-82] | > 6.00
4 | O=C(NCc1ccccc1)c1cc(-c2[nH]ncc2-c2ccc(F)c(F)c2)c[nH]1 [II-A-85] | > 6.00
5 | O=C(NCc1ccccc1)c1cc(-c2[nH]ncc2-c2cccc(F)c2F)c[nH]1 [II-A-103] | > 6.00
6 | O=C(c1cc(-c2[nH]ncc2-c2ccccc2)c[nH]1)N1CCCC1 [II-A-134] | 5.30 to 6.00
7 | COc1cccc(-c2cn[nH]c2-c2c[nH]c(C(=O)N3CCCC3)c2)c1 [II-A-144] | 5.30 to 6.00
8 | COc1cccc(-c2cn[nH]c2-c2c[nH]c(C(=O)NCc3cccnc3)c2)c1 [II-A-145] | 5.30 to 6.00
9 | COc1cccc(-c2cn[nH]c2-c2c[nH]c(C(=O)NCc3ccco3)c2)c1 [II-A-147] | 5.30 to 6.00
10 | O=C(NCc1ccco1)c1cc(-c2[nH]ncc2-c2ccccc2)c[nH]1 [II-A-149] | 5.30 to 6.00
11 | O=C(c1cc(-c2[nH]ncc2-c2ccccc2)c[nH]1)N1CCOCC1 [II-A-150] | 5.30 to 6.00
12 | O=C(NCc1cccnc1)c1cc(-c2[nH]ncc2-c2ccccc2)c[nH]1 [II-A-153] | 5.30 to 6.00
13 | COc1cccc(-c2cn[nH]c2-c2c[nH]c(C(=O)N(C)C)c2)c1 [II-A-154] | 5.30 to 6.00
14 | CC(C)NC(=O)c1cc(-c2[nH]ncc2-c2ccccc2)c[nH]1 [II-A-158] | 5.30 to 6.00
15 | COc1cccc(-c2cn[nH]c2-c2c[nH]c(C(=O)N3CCC(C)CC3)c2)c1 [II-A-163] | < 5.30
